# Source: patent US6339045B1, “N-(unsubstituted or substituted)-4-substituted-6-(unsubstituted or substituted)phenoxy-2-pyridinecarboxamides or thiocarboxamides, processes for producing the same, and herbicides” (Kureha Kagaku Kogyo Kabushiki Kaisha, priority 1995, dated 2002)
# Assays:
# Test in all cases: Herbicidal effect by foliage and soil treatment
# Format in all cases: in vivo
# Conditions in all cases: 10 g ai/10a, evaluated after 14 days
# [1] = tested on: redroot pigweed (Amaranthus retroflexus)
# Summary of the method: (§1)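 Seedlings grown in granular soil in a 19–25 °C greenhouse to the cotyledon–two-leaf stage were sprayed over foliage and soil with compound in Tween 20/water at a set application rate. Growth was scored on a rating scale against untreated plants after 14 days.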
# [2] = tested on: wild chamomile (Matricaria chamomilla)
# Summary of the method: as §1
# [3] = tested on: cleavers (Galium aparine)
# Summary of the method: as §1
# [4] = tested on: velvetleaf (Abutilon theophrasti)
# Summary of the method: as §1
# [5] = tested on: field bindweed (Convolvulus arvensis)
# Summary of the method: as §1
# [6] = tested on: black nightshade (Solanum nigrum)
# Summary of the method: as §1
# [7] = tested on: kediock (Sinapis arvensis)
# Summary of the method: as §1
# [8] = tested on: common chickweed (Stellaria media)
# Summary of the method: as §1
# [9] = tested on: sicklepod (Cassia obtusifolia)
# Summary of the method: as §1
# [10] = tested on: ivyleafspeedwell (Veronica hederaefolia)
# Summary of the method: as §1
# [11] = tested on: common blackjack (Bidens pilosa)
# Summary of the method: as §1
Compound,"herbicidal activity rating, AR (Amaranthus retroflexus) [1]","herbicidal activity rating, MC (Matricaria chamomilla) [2]","herbicidal activity rating, GA (Galium aparine) [3]","herbicidal activity rating, AT (Abutilon theophrasti) [4]","herbicidal activity rating, CA (Convolvulus arvensis) [5]","herbicidal activity rating, SN (Solanum nigrum) [6]","herbicidal activity rating, SA (Sinapis arvensis) [7]","herbicidal activity rating, SM (Stellaria media) [8]","herbicidal activity rating, CO (Cassia obtusifolia) [9]","herbicidal activity rating, VH (Veronica hederaefolia) [10]","herbicidal activity rating, BP (Bidens pilosa) [11]"
COc1cc(Oc2cccc(C(F)(F)F)c2)nc(C(=O)NN(C)C)c1 [Compound I-109],5 (percentage of weeds killed was not less than 80%),4 (percentage of weeds killed was not less than 60% and less than 80%),5 (percentage of weeds killed was not less than 80%),5 (percentage of weeds killed was not less than 80%),4 (percentage of weeds killed was not less than 60% and less than 80%),5 (percentage of weeds killed was not less than 80%),5 (percentage of weeds killed was not less than 80%),4 (percentage of weeds killed was not less than 60% and less than 80%),5 (percentage of weeds killed was not less than 80%),5 (percentage of weeds killed was not less than 80%),5 (percentage of weeds killed was not less than 80%)
"COc1cc(Oc2cccc(C(F)(F)F)c2)nc(C(N)=O)c1 [Compound I-123, 4-methoxy-6-{3-(trifluoromethyl)phenoxy}-2-pyridine carboxamide]",5 (percentage of weeds killed was not less than 80%),1 (percentage of weeds killed was less than 20%),5 (percentage of weeds killed was not less than 80%),3 (percentage of weeds killed was not less than 40% and less than 60%),4 (percentage of weeds killed was not less than 60% and less than 80%),5 (percentage of weeds killed was not less than 80%),5 (percentage of weeds killed was not less than 80%),5 (percentage of weeds killed was not less than 80%),2 (percentage of weeds killed was not less than 20% and less than 40%),5 (percentage of weeds killed was not less than 80%),2 (percentage of weeds killed was not less than 20% and less than 40%)
COc1cc(Oc2cccc(C(F)(F)F)c2)nc(C(=O)NNC(C)(C)C)c1 [Compound I-126],5 (percentage of weeds killed was not less than 80%),4 (percentage of weeds killed was not less than 60% and less than 80%),5 (percentage of weeds killed was not less than 80%),5 (percentage of weeds killed was not less than 80%),4 (percentage of weeds killed was not less than 60% and less than 80%),5 (percentage of weeds killed was not less than 80%),5 (percentage of weeds killed was not less than 80%),5 (percentage of weeds killed was not less than 80%),5 (percentage of weeds killed was not less than 80%),5 (percentage of weeds killed was not less than 80%),5 (percentage of weeds killed was not less than 80%)
COc1cc(Oc2cccc(C(F)(F)F)c2)nc(C(=O)NCS(C)(=O)=O)c1 [Compound I-127],5 (percentage of weeds killed was not less than 80%),4 (percentage of weeds killed was not less than 60% and less than 80%),5 (percentage of weeds killed was not less than 80%),5 (percentage of weeds killed was not less than 80%),5 (percentage of weeds killed was not less than 80%),5 (percentage of weeds killed was not less than 80%),5 (percentage of weeds killed was not less than 80%),5 (percentage of weeds killed was not less than 80%),5 (percentage of weeds killed was not less than 80%),5 (percentage of weeds killed was not less than 80%),5 (percentage of weeds killed was not less than 80%)
"CCN(CC)C(=O)c1cc(OC)cc(Oc2cccc(C(F)(F)F)c2)n1 [Compound I-200, N,N-diethyl-4-methoxy-6-{3-(trifluoromethyl)phenoxy}-2-pyridine carboxamide]",5 (percentage of weeds killed was not less than 80%),4 (percentage of weeds killed was not less than 60% and less than 80%),5 (percentage of weeds killed was not less than 80%),5 (percentage of weeds killed was not less than 80%),5 (percentage of weeds killed was not less than 80%),5 (percentage of weeds killed was not less than 80%),5 (percentage of weeds killed was not less than 80%),5 (percentage of weeds killed was not less than 80%),5 (percentage of weeds killed was not less than 80%),5 (percentage of weeds killed was not less than 80%),2 (percentage of weeds killed was not less than 20% and less than 40%)
CCN(C)C(=O)c1cc(OC)cc(Oc2cccc(C(F)(F)F)c2)n1 [Compound I-201],5 (percentage of weeds killed was not less than 80%),2 (percentage of weeds killed was not less than 20% and less than 40%),5 (percentage of weeds killed was not less than 80%),4 (percentage of weeds killed was not less than 60% and less than 80%),5 (percentage of weeds killed was not less than 80%),5 (percentage of weeds killed was not less than 80%),5 (percentage of weeds killed was not less than 80%),5 (percentage of weeds killed was not less than 80%),5 (percentage of weeds killed was not less than 80%),5 (percentage of weeds killed was not less than 80%),2 (percentage of weeds killed was not less than 20% and less than 40%)
"CNN(C)C(=O)c1cc(OC)cc(Oc2cccc(C(F)(F)F)c2)n1 [Compound I-202, N-methyl-N-methylamino-4-methoxy-6-{3-(trifluoromethyl)phenoxy}-2-pyridine carboxamide]",5 (percentage of weeds killed was not less than 80%),3 (percentage of weeds killed was not less than 40% and less than 60%),5 (percentage of weeds killed was not less than 80%),4 (percentage of weeds killed was not less than 60% and less than 80%),4 (percentage of weeds killed was not less than 60% and less than 80%),5 (percentage of weeds killed was not less than 80%),5 (percentage of weeds killed was not less than 80%),5 (percentage of weeds killed was not less than 80%),5 (percentage of weeds killed was not less than 80%),5 (percentage of weeds killed was not less than 80%),4 (percentage of weeds killed was not less than 60% and less than 80%)
COc1cc(Oc2cccc(C(F)(F)F)c2)nc(C(=O)N(C)OC)c1 [Compound I-203],5 (percentage of weeds killed was not less than 80%),2 (percentage of weeds killed was not less than 20% and less than 40%),5 (percentage of weeds killed was not less than 80%),4 (percentage of weeds killed was not less than 60% and less than 80%),4 (percentage of weeds killed was not less than 60% and less than 80%),5 (percentage of weeds killed was not less than 80%),5 (percentage of weeds killed was not less than 80%),4 (percentage of weeds killed was not less than 60% and less than 80%),5 (percentage of weeds killed was not less than 80%),5 (percentage of weeds killed was not less than 80%),3 (percentage of weeds killed was not less than 40% and less than 60%)
